Measured values reported in patent publication US10208049B2, “Compounds and methods of treating ocular disorders” (Case Western Reserve University, priority 2009, dated 2019).

Tests used:
Rdh8−/−Abca4−/− mice = experiment: SD-OCT grading of retinal degeneration in light-exposed Rdh8−/−Abca4−/− mice; assay type: in vivo, mouse; conditions: for effectiveness in treating retinal degeneration in the mice: ABCA4−/−/RDH8−/− mice, effective = OCT score at least about 2.5 and 11-cis-retinal increase at least about 30%; for Score OCT: Rdh8−/−Abca4−/− mice, SD-OCT 7 days after 10,000 lux illumination for 30 min at 4 weeks of age, score 5 = no degeneration, 1 = severe, No Treatment 1
Description: (§1) We tested 21 drugs containing primary amino groups to determine if they react with the aldehyde group of all-trans-RAL to reduce its toxic levels in the eye after exposure to light and prevent its condensation into toxic conjugates. […] For these experiments, we used ABCA4^−/−/RDH8^−/− mice as models for Stargardt's disease and AMD. We employed analytical methods for determining the pharmacodynamics and pharmacokinetics of candidate drugs including: HPLC/MS/MS for analysis of retinoids and histological sections and OCT for assessment of retinal pathology. The relative amount of retinoids and their composition strongly correlates with the health status of the retina. […] Methodologies for performing the analysis on ABCA4^−/−/RDH8^−/− mice is described below.
(§2) Abca4^−/− mice also were generated by standard procedures (Ingenious Targeting, Inc., Stony Brook, N.Y.). […] Rdh8^−/−Abca4^−/− mice were established by crossbreeding Abca4^−/− mice with Rdh8^−/− mice. […] PCR products were cloned and sequenced to verify their identities.
Although analytical and histological methods provide exhaustive characterization of retina, they cannot be performed in vivo. To reduce the number of sacrificed animals and time required for analysis, SD-OCT from Bioptigen (Research Triangle Park, N.C.) was employed for in vivo imaging of mouse retinas. Bioptigen OCT systems utilize a narrow single-mode beam from a wide bandwidth light source to probe the structure of retina at a higher resolution (2.0 μm) than normal OCT systems. Mice were anesthetized by intraperitoneal (IP) injection of 20 μl/g bw of 6 mg/ml ketamine and 0.44 mg/ml xylazine diluted with 10 mM sodium phosphate, pH 7.2, containing 100 mM NaCl. Pupils were dilated with 1% tropicamide. In vivo SD-OCT images were obtained from both eyes. Four pictures acquired in a B-scan mode were used to construct the final averaged images (FIG. 8).
In vivo retinal structures of Rdh8^−/−Abca4^−/− mice are imaged by SD-OCT 7 days after 10,000 lux illumination for 30 min at 4 weeks of age.

ABCA4−/−/RDH8−/− mice = experiment: HPLC analysis of 11-cis-retinal in eyes of ABCA4−/−/RDH8−/− mice; assay type: in vivo, mouse; conditions: HPLC peak area of 11-cis-retinal, No Treatment 88.2
Description: as §1, §2
All experimental procedures related to extraction, derivatization, and separation of retinoids from dissected mouse eyes were carried out under dim red light. Two whole mouse eyes were homogenized in 1 ml of 50 mM phosphate buffer, pH 7.0, containing 50% ethanol and 10 mM NH2OH. Ice-cold methanol (1 ml) was added to the homogenates 20 min after incubation at room temperature (RT), non-polar retinoids were extracted twice with 4 ml of hexane. The organic phase was collected, dried down in a SpeedVac and re-solubilized in 0.3 ml of hexane. […] Retinoids were detected at 325 nm (retinyl esters and retinols) and 350 nm (retinyl oximes) with a diode array detector. Those of interest were quantified based on the areas under their peaks calculated with the help of HP Chemstation A.03.03 software and compared with areas calculated based on known amounts of synthetic standards plotted as a standard curve.

[1] = Formation of Schiff base between retinal and selected amines (UV/Vis spectra); assay type: physicochemical; conditions: 90% ethanol in water, 0.1 M phosphate buffer pH 7.0, 2 molar excess of amine, 1 h room temperature
Protocol: Formation of conjugates (Schiff-base) between retinal and primary amine compounds containing amino group (putative drugs) is the key mechanism to control all-trans-RAL levels in the retina and prevent retina degeneration. Stability of these conjugates is an important factor that can determine biological activity of the drugs. To standardize conditions of Schiff-base formation all reactions were performed in 90% ethanol in water buffered with 0.1 M phosphate buffer, pH 7.0. Stock solution of retinal was made up freshly in ethanol. Its final concentration was determined spectrophotometrically at 380 nm (ε=42,880). All procedures were carried out in the dark. Schiff base formation was initiated by addition of retinal stock solution to a 2 molar excess of tested amine dissolved in the reaction buffer. The reaction mixture was incubated for 1 h in room temperature.
Steady-state rate of Schiff-base formation was obtained from absorbance changes at 380 and 440 nm (510 nm for aromatic amines) corresponding to free retinal and protonated Schiff base, respectively. To investigate stability of the given retinal conjugates a mixture of HPLC purified Schiff base of selected compound and phosphatidylocholine was dried down in SpeedVac. Then, Schiff-base and lipids were overlaid with 0.1 M phosphate buffer and sonicated immediately to form liposomes. The samples were extracted with hexane following 30 min incubated in room temperature. The breakdown of Schiff-base was monitored by HPLC detection of free retinal extracted from the reaction mixture.
FIGS. 3-5 illustrate UV/Vis spectra for the FDA approved drugs. FDA approved drugs that were active readily formed a Schiff base with all-trans-RAL as evidenced by a substantial differential between spectra of unprotonated and protonated Schiff base.

Row | Structure (SMILES) | effectiveness in treating retinal degeneration in the mice (Rdh8−/−Abca4−/− mice) | 11cRAL (area) (ABCA4−/−/RDH8−/− mice) | formation of stable Schiff-base with all-trans-RAL [1] | Score OCT (Rdh8−/−Abca4−/− mice)
1 | COCCCC/C(=N\OCCN)c1ccc(C(F)(F)F)cc1 [Luvox] | effective in treating retinal degeneration | 175.5 | – | –
2 | CC(N)C12CC3CC(CC(C3)C1)C2 (stereo not drawn) [Flumadine] | effective in treating retinal degeneration | 135.3 | – | –
3 | CC(C)C[C@H](CN)CC(=O)O [Lyrica, (S)-3-(aminomethyl)-5-methylhexanoic acid] | effective in treating retinal degeneration | 166.5 | readily formed stable Schiff-bases | –
4 | CCOC(=O)C1=C[C@@H](OC(CC)CC)[C@H](NC(C)=O)[C@@H](N)C1 [Tamiflu] | – | 87.3 | – | 1.3
5 | NCCCC[C@H](N[C@@H](CCc1ccccc1)C(=O)O)C(=O)N1CCC[C@H]1C(=O)O [Prinivil] | – | 132.7 | – | 2.0
6 | Nc1ccc(O)c(C(=O)O)c1 [Asacol] | effective in treating retinal degeneration | 140.2 | – | –
7 | CC(C)C[C@@H](CN)CC(=O)O [(R)-3-(aminomethyl)-5-methylhexanoic acid] | effective in treating retinal degeneration | 164.8 | – | –
8 | Nc1ccc(S(=O)(=O)c2ccc(N)cc2)cc1 [Dapsone] | effective in treating retinal degeneration | 156.5 | – | –
9 | CC12CC3CC(C)(C1)CC(N)(C3)C2 [Nameda] | – | 97.6 | – | 1.7
10 | N[C@@H]1CON=C1O [Seromycin] | effective in treating retinal degeneration | 159.9 | readily formed stable Schiff-bases | –
11 | Nc1ccc(C(=O)O)c(O)c1 [Paser] | effective in treating retinal degeneration | 151.9 | readily formed stable Schiff-bases | –
12 | Nc1ccc(C(=O)NCC(=O)[O-])cc1.[Na+] [Aminohippurate Sodium] | – | 109.4 | – | 1
13 | NCc1ccc(S(N)(=O)=O)cc1 [Sulfamylon] | effective in treating retinal degeneration | 166.1 | – | –
14 | N[C@@H](CC(=O)N1CCn2c(nnc2C(F)(F)F)C1)Cc1cc(F)c(F)cc1F [Januvia] | effective in treating retinal degeneration | 126.8 | – | –
15 | CC(C)(S)[C@@H](N)C(=O)O [Cuprimine] | – | 118.5 | did not readily form stable Schiff-bases | 1.7
16 | Nc1ccc(C(=O)[O-])cc1.[K+] [Potaba] | – | 90.6 | did not readily form stable Schiff-bases | 2.3
17 | NS(=O)(=O)c1cc2c(cc1Cl)N=C[N-]S2(=O)=O.[Na+] [Sodium Diuril] | effective in treating retinal degeneration | 139.7 | – | –
